# Source: US20230181719A1, “NGR CONJUGATES AND USES THEREOF” (OSPEDALE SAN RAFFAELE S.R.L., priority 2020, published 2023)
# Positions of bridges follow the written chain, without caps; N, C: chain ends. Residues, ends and D or L forms follow the SMILES beside them.
# What was measured:
# [1] = Peptide deamidation stability upon incubation at 37° C., by mass spectrometry; format: physicochemical; details: after 32 h at 37° C. in PBS, pH 7.4
# Procedure: FIG. 11. The peptide SCNGRCGVRY (SEQ ID NO: 3) has a lower propensity to deamidate than CNGRCGVRY (SEQ ID NO:4) in a physiological buffer at […], but not in ammonium bicarbonate buffer at pH 8.5. A and B) MS analysis of SCNGRCGVRY (SEQ ID NO: 3) and CNGRCGVRY (SEQ ID NO:4) after incubation at 37° C. for the indicated time in 50 mM sodium phosphate buffer, pH 7.4 (PBS) or 0.1 M ammonium bicarbonate buffer, pH 8.5 (Ambic). The values +0, + 1, -17 reported in the plot correspond to the difference between the observed and the expected molecular mass of peptides expressed in daltons. MS analysis was performed using the LTQ-Orbitrap mass spectrometer (Thermo Scientific).
# To assess whether the addition of the serine residue to CNGRCG (SEQ ID NO:1) might affect its deamidation propensity inventors synthetized the SCNGRCGVRY (SEQ ID NO: 3) and CNGRCGVRY (SEQ ID NO:4) peptides and studied their stability upon incubation at 37° C. in PBS, pH 7.4, by mass spectrometry.
# A similar experiment was then performed with peptides in 0.1 M ammonium bicarbonate, pH 8.5, a condition known to force Asn deamidation (Curnis et al. 2006). […] Furthermore, the succinimide-derivative of S-NGR-TNF, when formed, is more prone to hydrolysis.
# CD13 (aminopeptidase N) = target: T1, CD13 (aminopeptidase N) (Homo sapiens, UniProt P15144); assay: CD13 enzyme kinetics inhibition assay (L-alanine p-nitroanilide substrate); format: biochemical; details: in different experimental conditions
# T1 construct: histidine tag
# Description: FIG. 10. The peptide SCNGRCGVRY (SEQ ID NO: 3) inhibits CD13 enzymatic activity more efficiently than CNGRCGVRY (SEQ ID NO:4) and acetylated-CNGRCGVRY. A) Steady state kinetic analysis of CD13 in the presence of various amounts of L-alanine p-nitroanilide substrate and SCNGRCGVRY (SEQ ID NO: 3), CNGRCGVRY (SEQ ID NO:4), or acetylated-CNGRCGVRY (ac-CNGRCGVRY) (SEQ ID NO:42). A representative plot of 3-4 independent experiments, showing the initial velocity (V0) versus substrate concentration (mean ± SE of four technical replicates), is shown. The assays were performed with recombinant human histidine-tagged CD13 (200-300 ng/ml) in 60 mM potassium phosphate buffer, pH 7.4, at room temperature. The kinetic of p-nitroanilide formation was monitored spectrophotometrically (A405 nm) for 5-10 min. The inhibitory constant (Ki) reported in each plot is the result of the 3-4 independent experiments (mean ± SE). B) Double reciprocal plots of the experiments reported in panel A.
# To rule out the possibility that the addition of the serine residue to the N-terminus of NGR-TNF abrogates or reduces its affinity for CD13 inventors performed enzyme kinetics inhibition assays with CD13 (aminopeptidase N) and SCNGRCGVRY (SEQ ID NO: 3), CNGRCGVRY (SEQ ID NO:4) or acetyl-CNGRCGVRY (corresponding to the N-terminal region of human S-NGR-TNF and NGR-TNF).
# αvβ5 = αvβ5 (Homo sapiens, UniProt P06756+P18084); assay: Competitive binding of acetyl-CisoDGRCG/streptavidin-peroxidase to integrin-coated microtiterplates; details: mean ± SE
# Description: (§1) To assess whether the isoDGR derivative of S-NGR-TNF and NGR-TNF targeting domains can recognize integrins with similar affinities inventors then analysed the binding of SCisoDGRCGVRY (SEQ ID NO: 17), CisoDGRCGVRY and acetyl-CisoDGRCGVRY to αvβ3, αvβ5, αvβ6 αvβ8 and α5β1 integrins using a competitive binding assay previously described (Curnis et al. 2010). […] As expected […] (SEQ ID NO: 3) and […] […] Considering that human NGR-TNF contains acetylated and non-acetylated forms and that both CNGRC (SEQ ID NO:5) and acetyl-CNGRC can undergo deamidation (Curnis et al. 2010), inventors can conclude that the isoDGR derivative of S-NGR-TNF, if formed, behave in a manner similar to those of the isoDGR derivatives of NGR-TNF in terms of integrin recognition.
# αvβ8 = αvβ8 (Homo sapiens, UniProt P06756+P26012); assay: as above; details: mean ± SE
# Description: as §1
# α5β1 = α5β1 (Homo sapiens, UniProt P05556+P08648); assay: as above; details: mean ± SE
# Description: as §1
# αvβ6 = αvβ6 (Homo sapiens, UniProt P06756+P18564); assay: as above; details: mean ± SE
# Description: as §1
# αvβ3 = αvβ3 (Homo sapiens, UniProt P05106+P06756); assay: as above
# Description: as §1
structure (smiles),measurement,setting,value
"CC(C)[C@H](NC(=O)CNC(=O)[C@@H]1CSSC[C@H](NC(=O)[C@@H](N)CO)C(=O)N[C@@H](CC(N)=O)C(=O)NCC(=O)N[C@@H](CCCNC(=N)N)C(=O)N1)C(=O)N[C@@H](CCCNC(=N)N)C(=O)N[C@@H](Cc1ccc(O)cc1)C(=O)O [SCNGRCGVRY, SCNGRCGVRY (SEQ ID NO: 3)] (H-SCNGRCGVRY-OH; disulfide 2-6; N-terminus and C-terminus assumed)",+1 Da deamidation product (DGR/isoDGR),[1],observed
same,-17 Da form still present,[1],not
same,Ki value for CD13 lower than that of CNGRCGVRY,CD13 (aminopeptidase N),3-5 fold
same,Ki,αvβ5,> 10 µM
same,Ki,αvβ8,> 10 µM
same,Ki,α5β1,> 10 µM
same,Ki,αvβ6,> 10 µM
same,Ki,αvβ3; mean ± SE,> 10 µM
same,affinity for integrins,"αvβ3; αvβ3, αvβ5, αvβ6, αvβ8 and α5β1 (all integrins)",no or very low affinity
